Experimental findings from paper PMC5522996, “Big conductance calcium‐activated potassium channel openers control spasticity without sedation” (British Journal of Pharmacology, 2017) are described below.

Like-named read-outs stand apart in the source and are kept apart here. A value given as a limit tells only on which side of the number the result lay.

Data set [1] has as its system GABA (non-selective). The data set is described as follows: Receptor binding profile of VSN16R. Also noted: species or system human. Conditions: 10µM VSN16R.
In data set [2] the target is T1, A3 (Homo sapiens, UniProt P0DMS8).
T1 construct: purchased Cerep; Chantest; DiscoveRx; Multispan; MDS Pharma Services
T1 sequence (P0DMS8 whole entry): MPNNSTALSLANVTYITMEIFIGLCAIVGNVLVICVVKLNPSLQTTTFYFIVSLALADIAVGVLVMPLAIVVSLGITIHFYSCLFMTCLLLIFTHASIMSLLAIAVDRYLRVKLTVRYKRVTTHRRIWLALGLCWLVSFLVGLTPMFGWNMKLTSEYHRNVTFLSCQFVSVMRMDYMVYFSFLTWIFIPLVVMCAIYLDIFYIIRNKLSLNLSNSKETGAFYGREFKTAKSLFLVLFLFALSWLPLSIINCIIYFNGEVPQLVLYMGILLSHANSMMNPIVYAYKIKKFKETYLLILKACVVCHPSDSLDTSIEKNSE
Put plainly: Receptor binding profile of VSN16R. Particulars: 10µM VSN16R.

The test system of data set [3] is dogs. The data set is described as follows: 28 day toxicology in dogs (50, 100, 200mg/kg p.o.). In kind it is in vivo, dog. How it is done:
(§1) Twenty‐eight day toxicology in rats and dogs for Investigational New Drug filing was performed by Charles Rivers (UK). Reproductive toxicology in rabbits was performed by Charles Rivers (Canada). Pharmacokinetic and/or toxicological doses ranged from 5 to 1000 mg·kg^−1 p.o. in Sprague Dawley male and female rats (n = 6‐26 per group), 50–200 mg·kg^−1 p.o. in male and female Beagle dogs (n = 6 per group) and 100–750 mg·kg^−1 p.o. in female New Zealand white rabbits (n = 9 per group). Results are expressed as mean ± SD.
Tissue Analysed Result of Tissue Analysis in Rats Result of Tissue Analysis in Dogs Artery, Aorta Negative Negative
Bone Marrow femur Negative Negative
Bone Marrow sternum Negative Negative
Bone, Sternum Negative Negative
Epididymus Negative Negative
Adrenal Gland Negative Negative
Mammary Grand Negative Negative
Parathyroid Gland Negative Negative
Pituitary Gland Negative Negative
Prostate Gland Negative Negative
Salivary Gland Negative Negative
Seminal Vesicle Gland Negative Negative
Gut associated lymphoid Negative Negative
Large Intestine caecum Negative Negative
Large Intestine colon Negative Negative
Large Intestine rectum Negative Negative
Mandibular Lymph Node Negative Negative
Mesenteric Lymph Node Negative Negative
Skeletal Muscle Negative Negative
Nasal Cavity Negative Negative
Sciatic Nerve Negative Negative
Oesophagus Negative Negative
Pancreas Negative Negative […]

Data set [4] deals with T2, EDG5 (Homo sapiens, UniProt O95136).
T2 construct: purchased Cerep; Chantest; DiscoveRx; Multispan; MDS Pharma Services
T2 sequence (O95136 whole entry): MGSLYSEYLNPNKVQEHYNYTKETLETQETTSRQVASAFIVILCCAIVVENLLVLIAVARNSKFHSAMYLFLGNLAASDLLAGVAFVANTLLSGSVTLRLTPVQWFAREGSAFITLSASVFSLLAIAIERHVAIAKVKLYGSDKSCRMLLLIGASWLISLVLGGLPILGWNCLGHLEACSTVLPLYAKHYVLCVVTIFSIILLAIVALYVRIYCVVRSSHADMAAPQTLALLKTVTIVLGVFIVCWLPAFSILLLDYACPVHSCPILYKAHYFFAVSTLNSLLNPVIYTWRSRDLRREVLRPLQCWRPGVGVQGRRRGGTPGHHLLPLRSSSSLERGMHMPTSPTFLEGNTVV
The data set is described as follows: Receptor binding profile of VSN16R. Conditions: 10µM VSN16R.

Data set [5] concerns the target T3, CXCR2 (Homo sapiens, UniProt P25025).
T3 construct: purchased Cerep; Chantest; DiscoveRx; Multispan; MDS Pharma Services
Put plainly: Receptor binding profile of VSN16R. Particulars: 10µM VSN16R.

Data set [6] can be described thus: Stability in pooled mouse liver microsomes. Particulars: pooled mouse liver microsomes, 37°C, upper limit 100 min, read-out: t ½ in liver microsomes. In kind it is in vitro ADME. How it is done: (§2) The stability of compounds when subjected to hepatic and plasma degradation was assessed in vitro by Inpharmatica, Cambridge, UK. Compounds (1 μM) were incubated with either pooled mouse liver microsomes (0.1 mg protein mL^−1) or pooled mouse plasma at 37°C for 0, 5, 10, 20 and 40 min before termination with acetonitrile containing warfarin as an analytical internal standard. Samples were centrifuged, and the resultant supernatant analysed for parent compound. The mass responses at baseline were taken as the 100% reference values against which the disappearance of the compound was measured. The natural log of the % remaining values was used to generate linear plots of disappearance of the compounds. Half‐life values were calculated from the slope of these plots. Hepatocyte metabolism was assessed by Cyprotex, Macclesfield, and 10 μM VSN16R was incubated with primary mouse, rat, monkey (Macaque) and human hepatocytes for 1 h, and the presence of metabolites was assessed using liquid […] mass spectroscopy. The stability of VSN16R was assessed in vivo by Inpharmatica, Cyprotex and Charles Rivers, Cambridge. Blood (plasma) samples were obtained prior to and 5 min to 24 h after drug administration of 2–5 mg·kg^−1 i.v. or 5 mg·kg^−1 p.o. VSN16R into outbred mice and rats (n = 3 per time point). […] Data are expressed as mean ± SEM. […]
A general note: Microsomes from liver hold many membrane-bound enzymes, among them those of drug oxidation.

The target of data set [7] is CYP450 2C19 (Homo sapiens, UniProt P33261).
Chain of CYP450 2C19 (P33261 whole entry): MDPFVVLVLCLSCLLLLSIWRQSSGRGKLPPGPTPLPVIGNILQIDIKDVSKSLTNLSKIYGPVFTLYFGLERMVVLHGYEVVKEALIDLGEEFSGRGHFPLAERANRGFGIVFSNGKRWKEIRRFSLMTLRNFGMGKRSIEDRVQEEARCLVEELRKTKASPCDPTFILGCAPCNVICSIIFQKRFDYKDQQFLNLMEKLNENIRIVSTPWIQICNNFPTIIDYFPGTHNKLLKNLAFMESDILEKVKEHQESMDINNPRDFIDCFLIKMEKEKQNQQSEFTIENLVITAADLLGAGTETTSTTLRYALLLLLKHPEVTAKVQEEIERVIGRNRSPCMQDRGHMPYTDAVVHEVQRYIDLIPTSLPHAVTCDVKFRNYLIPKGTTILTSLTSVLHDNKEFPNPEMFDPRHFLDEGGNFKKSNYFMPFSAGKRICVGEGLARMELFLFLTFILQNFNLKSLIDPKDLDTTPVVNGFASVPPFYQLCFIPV
Text: IC50 Inhibition of substrate binding
Inhibition of binding of either 3-cyano-7-ethoxycoumarin, dibenzylfluorescein or 7-benzyoxy-4-
(trifluoromethyl) coumarin in human enzyme transfected BTI NN-5B1-4 cells or Sf9 insect cells or
inhibition of dextromethorphan substrate to CYP450 2D6 in liver microsomes.
Data set [8] concerns rats. The data set is described as follows: Irwin test. Format: in vivo, rat.
Data set [9] addresses T4, EDG7 (Homo sapiens, UniProt Q9UBY5).
T4 construct: purchased Cerep; Chantest; DiscoveRx; Multispan; MDS Pharma Services
The data set is described as follows: Receptor binding profile of VSN16R. Particulars: 10µM VSN16R.

For data set [10], the target named is T5, 5-HT5A (Homo sapiens, UniProt P47898).
T5 construct: purchased Cerep; Chantest; DiscoveRx; Multispan; MDS Pharma Services
T5 sequence (P47898 whole entry): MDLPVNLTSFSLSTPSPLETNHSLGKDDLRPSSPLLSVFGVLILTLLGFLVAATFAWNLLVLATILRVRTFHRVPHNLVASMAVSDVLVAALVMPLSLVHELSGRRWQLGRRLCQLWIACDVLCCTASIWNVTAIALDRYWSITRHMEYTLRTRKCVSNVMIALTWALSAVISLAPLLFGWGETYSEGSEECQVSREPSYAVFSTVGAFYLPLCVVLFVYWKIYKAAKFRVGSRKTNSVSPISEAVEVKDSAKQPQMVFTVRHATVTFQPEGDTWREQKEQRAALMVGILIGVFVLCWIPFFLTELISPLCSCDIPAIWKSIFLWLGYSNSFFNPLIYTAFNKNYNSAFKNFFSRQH
The data set is described as follows: Receptor binding profile of VSN16R. Conditions: 10µM VSN16R.

Data set [11] can be described thus: Plasma levels in toxicological studies, rats. In kind it is in vivo. Particulars: both sexes, Sprague Dawley, rat, po; for concentration at 30 min: 30 min following 50 mg·kg^−1 p.o. As for the experimental part: as §1
as §2, with “point). In addition, plasma, brain and spinal cord samples were obtained from ABH with spastic EAE. Immediately after blood collection, the brain and spinal cord were removed and then stored at −20°C prior to assay.” for “point).”

In data set [12] the target is T6, β1 (Homo sapiens, UniProt P08588).
T6 construct: purchased Cerep; Chantest; DiscoveRx; Multispan; MDS Pharma Services
T6 sequence (P08588 whole entry): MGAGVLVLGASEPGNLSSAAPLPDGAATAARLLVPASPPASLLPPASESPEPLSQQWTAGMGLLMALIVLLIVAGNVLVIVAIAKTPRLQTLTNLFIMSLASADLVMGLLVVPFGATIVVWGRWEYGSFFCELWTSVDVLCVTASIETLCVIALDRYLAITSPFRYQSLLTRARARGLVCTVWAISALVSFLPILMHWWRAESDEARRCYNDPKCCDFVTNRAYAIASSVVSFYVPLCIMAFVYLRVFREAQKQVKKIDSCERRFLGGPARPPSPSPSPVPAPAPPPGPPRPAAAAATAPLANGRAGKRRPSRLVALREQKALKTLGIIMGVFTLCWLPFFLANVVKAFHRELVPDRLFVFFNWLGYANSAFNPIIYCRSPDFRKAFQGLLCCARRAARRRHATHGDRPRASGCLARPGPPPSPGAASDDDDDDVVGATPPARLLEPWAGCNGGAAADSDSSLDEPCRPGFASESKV
The data set is described as follows: Receptor binding profile of VSN16R. Particulars: 10µM VSN16R.

Data set [13] addresses T7, M2 (Homo sapiens, UniProt P08172).
T7 construct: purchased Cerep; Chantest; DiscoveRx; Multispan; MDS Pharma Services
Put plainly: Receptor binding profile of VSN16R. Particulars: 10µM VSN16R.

Data set [14] has as its system ML1. Put plainly: Receptor binding profile of VSN16R. Details: species or system human. Conditions: 10µM VSN16R.
The test system of data set [15] is Cl- channel. The data set is described as follows: Receptor binding profile of VSN16R. Conditions: 10µM VSN16R. Details: species or system human.
The target in data set [16] is T8, NK3 (Homo sapiens, UniProt P29371).
T8 construct: purchased Cerep; Chantest; DiscoveRx; Multispan; MDS Pharma Services
T8 sequence (P29371 whole entry): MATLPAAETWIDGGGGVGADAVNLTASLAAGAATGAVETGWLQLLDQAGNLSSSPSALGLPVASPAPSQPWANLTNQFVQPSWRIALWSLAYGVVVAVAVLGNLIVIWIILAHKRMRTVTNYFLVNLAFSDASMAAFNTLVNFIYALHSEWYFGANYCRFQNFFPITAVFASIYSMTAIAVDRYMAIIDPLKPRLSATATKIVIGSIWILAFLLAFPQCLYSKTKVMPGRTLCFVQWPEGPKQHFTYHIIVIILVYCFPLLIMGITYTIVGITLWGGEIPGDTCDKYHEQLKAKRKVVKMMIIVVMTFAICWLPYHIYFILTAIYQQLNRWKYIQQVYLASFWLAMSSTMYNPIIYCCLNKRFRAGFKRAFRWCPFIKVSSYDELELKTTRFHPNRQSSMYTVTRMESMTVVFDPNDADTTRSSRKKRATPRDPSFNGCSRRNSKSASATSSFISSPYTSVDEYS
The data set is described as follows: Receptor binding profile of VSN16R. Conditions: 10µM VSN16R.

In data set [17] the target is T9, κ (Homo sapiens, UniProt P41145).
T9 construct: purchased Cerep; Chantest; DiscoveRx; Multispan; MDS Pharma Services
T9 sequence (P41145 whole entry): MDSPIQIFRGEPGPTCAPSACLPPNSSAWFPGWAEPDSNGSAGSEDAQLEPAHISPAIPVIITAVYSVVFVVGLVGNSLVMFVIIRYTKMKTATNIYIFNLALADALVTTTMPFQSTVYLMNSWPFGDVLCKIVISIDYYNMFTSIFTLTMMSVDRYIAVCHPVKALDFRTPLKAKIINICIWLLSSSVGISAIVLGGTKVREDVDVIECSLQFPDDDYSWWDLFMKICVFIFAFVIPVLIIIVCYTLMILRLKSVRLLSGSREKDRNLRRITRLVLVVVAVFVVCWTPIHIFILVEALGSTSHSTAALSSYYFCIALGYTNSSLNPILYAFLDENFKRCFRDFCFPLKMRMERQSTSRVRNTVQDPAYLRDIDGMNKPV
Put plainly: Receptor binding profile of VSN16R. Particulars: 10µM VSN16R.

T7 sequence (P08172 whole entry): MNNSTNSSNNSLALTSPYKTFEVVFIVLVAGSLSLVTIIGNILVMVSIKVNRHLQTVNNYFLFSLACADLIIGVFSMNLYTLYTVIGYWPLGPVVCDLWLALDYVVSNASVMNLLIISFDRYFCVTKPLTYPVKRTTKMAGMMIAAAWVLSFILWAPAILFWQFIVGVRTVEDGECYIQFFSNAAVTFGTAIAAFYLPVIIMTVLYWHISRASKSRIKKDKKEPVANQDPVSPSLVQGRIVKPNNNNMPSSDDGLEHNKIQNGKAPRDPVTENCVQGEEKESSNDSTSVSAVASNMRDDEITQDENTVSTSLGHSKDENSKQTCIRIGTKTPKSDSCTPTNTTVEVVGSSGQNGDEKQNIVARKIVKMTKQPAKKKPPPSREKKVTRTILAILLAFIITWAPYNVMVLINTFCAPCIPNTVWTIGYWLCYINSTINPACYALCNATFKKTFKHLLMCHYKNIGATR
T4 sequence (Q9UBY5 whole entry): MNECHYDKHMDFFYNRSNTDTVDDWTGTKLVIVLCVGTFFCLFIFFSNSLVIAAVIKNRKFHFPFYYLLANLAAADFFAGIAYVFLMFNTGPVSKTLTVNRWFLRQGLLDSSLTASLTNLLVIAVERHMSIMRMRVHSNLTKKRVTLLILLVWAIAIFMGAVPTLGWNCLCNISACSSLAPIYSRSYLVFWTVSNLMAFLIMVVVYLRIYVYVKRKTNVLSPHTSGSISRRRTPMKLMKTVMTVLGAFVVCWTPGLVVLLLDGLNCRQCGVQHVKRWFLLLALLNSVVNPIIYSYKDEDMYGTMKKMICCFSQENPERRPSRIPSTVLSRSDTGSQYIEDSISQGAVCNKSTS
T3 sequence (P25025 whole entry): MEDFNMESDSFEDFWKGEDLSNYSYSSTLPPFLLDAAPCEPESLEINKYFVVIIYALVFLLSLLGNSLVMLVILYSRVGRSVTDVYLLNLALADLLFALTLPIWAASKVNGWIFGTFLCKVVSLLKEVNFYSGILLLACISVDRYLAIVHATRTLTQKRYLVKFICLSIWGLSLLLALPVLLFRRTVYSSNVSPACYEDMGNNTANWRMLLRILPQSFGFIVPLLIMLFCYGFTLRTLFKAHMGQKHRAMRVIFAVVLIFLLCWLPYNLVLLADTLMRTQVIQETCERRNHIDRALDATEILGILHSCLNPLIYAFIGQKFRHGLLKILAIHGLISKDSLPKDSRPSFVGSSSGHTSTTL

Consider `C[C@H](CO)NC(=O)c1cccc(/C=C\CCCC(=O)N(C)C)c1` [VSN16R], for which the Activity result in [1], in [2], in [4], in [5], in data set [9] and in data set [10] was “Negligible Activity” in each case. The Activity entry in data set [12], in [13], in data set [14], in data set [15], in [16] and in [17] was “Negligible Activity” throughout. Further, in data set [3] (dog, in vivo), the “Result of Tissue Analysis in Dogs” value is reported as “Negative”. The NOEL in data set [3] (p.o., dogs) came out at 100 mg/kg. The half-life at 1 μM in data set [6] is above 1.67 h. Besides, the IC50 (in general, the concentration at which inhibition is half-maximal) in [7] is above 10 µM. The “Irwin test: Autonomic profile” value in data set [8] (120mg/kg p.o. in water) is “Unchanged”. In addition, the “Irwin test: Behavioural Profile” value in [8] (120mg/kg p.o. in water) is “Unchanged”. For the same molecule, the “Irwin test: Neurological profile” value in [8] (120mg/kg p.o. in water) is reported as “Unchanged”. In addition, in [8] (120 mg·kg^−1 p.o.), the “Adverse behavioural responses in Irwin tests” value was “did not display any adverse behavioural responses”. Also, in data set [11] (1000 mg·kg^−1 p.o., read-out: Plasma level at Cmax), the peak concentration (Cmax) – broadly, the highest concentration seen after dosing – is at most 368 µM. The concentration at 30 min is 15 µM in [11] (read-out: VSN16R detected in plasma) and 4907 ± 32.3 ng/mL in [11] (read-out: VSN16R detected in plasma (Mean ± SD)).
